What was measured:
[1] = PK test on cynomolgus monkeys; format: in vivo; details: male, cynomolgus monkey, plasma; for bioavailability: read-out: F (absolute bioavailability)
Experimental: (4) PK Test on Cynomolgus Monkeys:
The PK test method of the compound in vivo of cynomolgus monkeys (purchased from Guangdong Chunsheng Biotechnology Development Co., Ltd., weight 3-6 kg, male, ages of 4-6 years, 3 per oral group, 3 per intravenous injection group):
The cynomolgus monkeys were administered intragastrically with the test compound at doses of 2.5 mg/kg or 5 mg/kg or administered intravenously with the test compound at doses of 0.5 mg/kg or 1 mg/kg.
Blood samples were taken at 0.083, 0.25, 0.5, 1, 2, 4, 6, 8 and 24 hours from vein after the administration, and collected in anticoagulation tube with EDTA-K2. After liquid-liquid extraction, the plasma sample was quantitatively analyzed on a triple quadrupole tandem mass spectrometer using multiple reactive ion monitoring (MRM). Pharmacokinetic parameters were calculated using a noncompartmental method by WinNonLin 6.3 software.

HBV [2] = assay: Inhibition of HBV DNA replication in HepAD38 cells (qPCR method); format: cell-based; details: Hepatitis B virus, secreted virus DNA by qPCR
Text: Test 1: Evaluation of HepAD38 Cells on the Compound's Inhibitory Activity of HBV DNA Replication (qPCR Method)
HBV Cell Strain and Culture Conditions
HepAD38: Ladner et al. (Ladner, Otto et al. 1997) ligated the tetracycline-sensitive cytomegalovirus CMV promoter to the PBR322 plasmid and ligated it with the ayw subtype HBV DNA into the ptetHBV plasmid, and HepG2 cells were transfected to obtain the HepAD38 cell strain. Due to the destruction of the pre-C region gene, the yield of HBV DNA was about 11 times higher than that of HepG2.2.15 cells. Tetracycline could be used to regulate HBV replication, and the time required for culture was only half of that of HepG2.2.15 cells. It was suitable for studying the HBV replication process and replication intermediates and screening of anti-HBV drugs. HepAD38 was cultured in DMEM/F-12K medium containing 10% FBS and 1% double antibody (it also contained Tetracycline at a final concentration of 300 ng/ml and G418 at a final concentration of 400 μg/ml).
The virus particle DNA secreted by HepAD38 cells could be quantified by qPCR method, and thus the influence of the compound on virus replication could be detected.
(§1) Test of Anti HBV Activity In Vitro
After resuscitating the HepAD38 with a small number of passages, after the cells were in good condition, Tetracycline (final concentration of 300 ng/ml) and G418 (final concentration of 400 μg/ml) were added into the medium. […] After the cells were full, they were digested, counted, and diluted with DMEM/F-12K medium containing 10% FBS (containing Tetracycline at a final concentration of 300 ng/ml and G418 at a final concentration of 400 μg/ml, 1% double antibody) to a cell suspension of concentration of 2×10^5/mL. The cell suspension was seeded in a 96-well plate (the whole plate was covered) at 100 μL per well, and incubated at 37° C. in a constant temperature incubator with 5% CO2 for 24 h.
Compound preparation and cell treatment in antiviral experiments: the compound was dissolved with DMSO to 20 mM. Furthermore, the compound was diluted with DMSO to 800 μM, and then 8 dilutions at 4 fold were performed, the highest concentration was 800 μM. 1 μL of serially diluted compound was added to each well of the above-mentioned cell plate. The highest final concentration of the experiment was 4 μM (200 fold dilution). TDF (tenofovir disoproxil fumarate, Selleck, Cat S1400) was used as a positive control compound with a highest concentration of 4 μM. 1 μL of DMSO was added to the negative control wells to a final concentration of 0.5%.
The one-step hepatitis B virus nucleic acid quantitative determination kit for 48 people (PCR-fluorescent probe method) of Shengxiang Biotechnology was used for QPCR. 2.5 μL of supernatant was absorbed for Q-PCR, and the kit reagents were vortexed and mixed well after the reagents were melted before use. After centrifugation, the enzyme mixture was placed on ice for later use, and it was ensured that the subsequent steps were completed on the ice. 2.5 μL of sample release agent and 2.5 μL of test sample supernatant (experimental group, control group, standard curve group) were added to each well of the Q-PCR plate. After QPCR reaction, the copy number of virus DNA in each well was obtained. Graphpad Prism 5 software was used to process the concentration-virus copy number, and the EC50 of the compound against virus replication was calculated through a four-parameter nonlinear regression model.

HBV [3] = assay: Inhibition of HBV DNA replication in HepG2.2.15 cells (qPCR); format: cell-based; details: Hepatitis B virus, secreted virus DNA by qPCR
Experimental: Test 2: Evaluation of HepG2.2.15 Cells on the Compound's Inhibitory Activity of HBV DNA Replication
HBV Cell Line and Culture Conditions
The chromosomes of HepG2.2.15 cells (SELLS, PNAS, 1987 and SELLS, JV, 1988) integrated a complete HBV genome and stably expressed viral RNA and viral proteins. HepG2.2.15 cells could secrete mature hepatitis B virus particles, HBsAg and HBeAg into the culture medium. HepG2.2.15 cells were cultured in a DMEM medium containing 10% fetal bovine serum, 100 U/mL penicillin, 100 U/mL streptomycin, 1% non-essential amino acids, 1 mM sodium pyruvate and 300 µg/mL G418.
The virus particle DNA secreted by HepG2.2.15 cells could be quantified by qPCR method, and the influence of the compound on virus replication could be detected.
as §1
8,000 HepG 2.2.15 cells per well were seeded into a 96-well cell culture plate, the plate was cultured at 37° C. and 5% CO2 for 3 days until the cells grew to full wells. Old liquid medium was discard and replaced with 200 μL of new medium (5% FBS) on day 0. […]
Primers: HBV-For-202, […]; HBV-Rev-315, […]. […] Graphpad Prism 5 software was used to process the concentration-virus copy number, and the EC50 of the compound against virus replication was calculated through a four-parameter nonlinear regression model.

COC(=O)C1=C(CN2CCN3C(=O)N(c4ccc(C(=O)O)cc4)C[C@@H]3C2)NC(c2nccs2)=N[C@H]1c1ccc(F)cc1Cl [Control compound, 4-((S)-7-(((R)-6-(2-chloro-4-fluorophenyl)-5-(methoxycarbonyl)-2-(thiazol-2-yl)-3,6-dihydropyrimidin-4-yl)methyl)-3-oxohexahydroimidazo[1,5-a]pyrazine-2(3H)-yl)benzoic acid, reference compound]
AUC(0-t) ([1]; iv, 0.5 mg/kg): 720 ng·h/mL
Tmax ([1]; iv, 0.5 mg/kg): 4.98 min
AUC(0-t) ([1]; po, 2.5 mg/kg): 647 ng·h/mL
Tmax ([1]; po, 2.5 mg/kg): 90 min
bioavailability ([1]; po, 2.5 mg/kg): 23.6%

COC(=O)C1=C(CN2CCN3C(=O)N(c4ccc(C(=O)O)cc4F)C[C@@H]3C2)NC(c2nccs2)=N[C@H]1c1ccc(F)cc1Cl [Example 1]
EC50 (HBV [2]): 20 nM

COC(=O)C1=C(CN2CCN3C(=O)N(c4ccc(C(=O)O)c(F)c4)C[C@@H]3C2)NC(c2nccs2)=N[C@H]1c1ccc(F)cc1Cl [Example 2]
EC50 (HBV [2]): 10 nM
EC50 (HBV [3]): 4 nM
AUC(0-t) ([1]; iv, 0.5 mg/kg): 1020 ng·h/mL
Tmax ([1]; iv, 0.5 mg/kg): 4.98 min
AUC(0-t) ([1]; po, 2.5 mg/kg): 3380 ng·h/mL
Tmax ([1]; po, 2.5 mg/kg): 30 min
bioavailability ([1]; po, 2.5 mg/kg): 64.8%

CCOC(=O)C1=C(CN2CCN3C(=O)N(c4ccc(C(=O)O)cc4F)C[C@@H]3C2)NC(c2nccs2)=N[C@H]1c1ccc(F)cc1Br [Example 3]
EC50 (HBV [2]): 31 nM

CCOC(=O)C1=C(CN2CCN3C(=O)N(c4ccc(C(=O)O)c(F)c4)C[C@@H]3C2)NC(c2nccs2)=N[C@H]1c1ccc(F)cc1Br [Example 4]
EC50 (HBV [2]): 16 nM

CCOC(=O)C1=C(CN2CCN3C(=O)N(c4ccc(C(=O)O)c(F)c4)C[C@@H]3C2)NC(c2nccs2)=N[C@H]1c1ccc(F)cc1Cl [Example 6]
EC50 (HBV [2]): 15 nM

CCOC(=O)C1=C(CN2CCN3C(=O)N(c4ccc(C(=O)O)cc4F)C[C@@H]3C2)NC(c2nccs2)=N[C@H]1c1ccc(Cl)cc1Cl [Example 7]
EC50 (HBV [2]): 16 nM

CCOC(=O)C1=C(CN2CCN3C(=O)N(c4ccc(C(=O)O)c(F)c4)C[C@@H]3C2)NC(c2nccs2)=N[C@H]1c1ccc(Cl)cc1Cl [Example 8]
EC50 (HBV [2]): 13 nM

From patent US20220194951A1, “DIHYDROPYRIMIDINE COMPOUND AND APPLICATION THEREOF AS DRUG” (SUNSHINE LAKE PHARMA CO., LTD., priority 2019, published 2022)
